# Results published in ChEMBL document CHEMBL3046555, “Synthesis and Microbiological Evaluation of Novel [N-Acetyl-2,6-Diarylpiperidin-4-YL]-5-Spiro-4-Acetyl-2-(Acetylamino)-2-1,3,4-Thiadiazolines” (2004).
# The source made the active and inactive calls. The rule behind the calls is not given here.
# Columns and labels:
# [1] = test system: Klebsiella pneumoniae; assay: Antibacterial activity against Klebsiella pneumoniae after 24 hr by two-fold serial dilution method; assay type: functional
# [2] = test system: Enterococcus faecalis; assay: Antibacterial activity against Enterococcus faecalis after 24 hr by two-fold serial dilution method; assay type: functional
# [3] = test system: Bacillus subtilis; assay: Antibacterial activity against Bacillus subtilis after 24 hr by two-fold serial dilution method; assay type: functional
# [4] = test system: Candida; assay: Antifungal activity against Candida-6 after 72 to 96 hr by two-fold serial dilution method; assay type: functional
# [5] = test system: Pseudomonas aeruginosa; assay: Antibacterial activity against Pseudomonas aeruginosa after 24 hr by two-fold serial dilution method; assay type: functional
# [6] = test system: Candida; assay: Antifungal activity against Candida-51 after 72 to 96 hr by two-fold serial dilution method; assay type: functional
# [7] = test system: Aspergillus flavus; assay: Antifungal activity against Aspergillus flavus after 72 to 96 hr by two-fold serial dilution method; assay type: functional
# [8] = test system: Aspergillus niger; assay: Antifungal activity against Aspergillus niger after 72 to 96 hr by two-fold serial dilution method; assay type: functional
# [9] = test system: Cryptococcus neoformans; assay: Antifungal activity against Cryptococcus neoformans at 100 ug/ml after 72 to 96 hr by two-fold serial dilution method; assay type: functional, organism-based
# [10] = test system: Escherichia coli; assay: Antibacterial activity against Escherichia coli after 24 hr by two-fold serial dilution method; assay type: functional
# [11] = test system: Candida; assay: Antifungal activity against Candida-6 at 100 ug/ml after 72 to 96 hr by two-fold serial dilution method; assay type: functional, organism-based
# [12] = test system: Candida; assay: Antifungal activity against Candida-51 at 100 ug/ml after 72 to 96 hr by two-fold serial dilution method; assay type: functional, organism-based
# [13] = test system: Enterococcus faecalis; assay: Antibacterial activity against Enterococcus faecalis at 100 ug/ml after 24 hr by two-fold serial dilution method; assay type: functional, organism-based
# [14] = test system: Pseudomonas aeruginosa; assay: Antibacterial activity against Pseudomonas aeruginosa at 100 ug/ml after 24 hr by two-fold serial dilution method; assay type: functional, organism-based
# [15] = test system: Aspergillus flavus; assay: Antifungal activity against Aspergillus flavus at 100 ug/ml after 72 to 96 hr by two-fold serial dilution method; assay type: functional, organism-based
# [16] = test system: Klebsiella pneumoniae; assay: Antibacterial activity against Klebsiella pneumoniae at 100 ug/ml after 24 hr by two-fold serial dilution method; assay type: functional, organism-based
# [17] = test system: Cryptococcus neoformans; assay: Antifungal activity against Cryptococcus neoformans after 72 to 96 hr by two-fold serial dilution method; assay type: functional
MIC [1],MIC [2],MIC [3],MIC [4],MIC [5],MIC [6],MIC [7],MIC [8],MIC [10],MIC [17],Structure (SMILES),inhibition [9],inhibition [11],inhibition [12],inhibition [13],inhibition [14],inhibition [15],inhibition [16]
25 µg/mL,50 µg/mL,100 µg/mL,50 µg/mL,50 µg/mL,100 µg/mL,100 µg/mL,50 µg/mL,50 µg/mL,–,CC(=O)NC1=NN(C(C)=O)C2(CC(c3ccc(C)cc3)N(C(C)=O)C(c3ccc(C)cc3)C2C)S1 (stereo not given),inactive,–,–,–,–,–,–
–,–,100 µg/mL,–,–,–,–,100 µg/mL,50 µg/mL,–,CC(=O)NC1=NN(C(C)=O)C2(CC(c3ccccc3)N(C(C)=O)C(c3ccccc3)C2)S1 (stereo not given),inactive,inactive,inactive,inactive,inactive,inactive,inactive
–,100 µg/mL,100 µg/mL,–,–,–,100 µg/mL,50 µg/mL,50 µg/mL,–,CC(=O)NC1=NN(C(C)=O)C2(CC(c3ccccc3)N(C(C)=O)C(c3ccccc3)C2C)S1 (stereo not given),inactive,inactive,inactive,–,inactive,–,inactive
100 µg/mL,100 µg/mL,100 µg/mL,50 µg/mL,100 µg/mL,100 µg/mL,–,50 µg/mL,100 µg/mL,–,CC(=O)NC1=NN(C(C)=O)C2(CC(c3ccc(C)cc3)N(C(C)=O)C(c3ccc(C)cc3)C2)S1 (stereo not given),inactive,–,–,–,–,inactive,–
6.25 µg/mL,25 µg/mL,25 µg/mL,50 µg/mL,25 µg/mL,25 µg/mL,25 µg/mL,25 µg/mL,25 µg/mL,6.25 µg/mL,COc1ccc(C2CC3(SC(NC(C)=O)=NN3C(C)=O)C(C)C(c3ccc(OC)cc3)N2C(C)=O)cc1 (stereo not given),–,–,–,–,–,–,–
12.5 µg/mL,12.5 µg/mL,50 µg/mL,25 µg/mL,25 µg/mL,25 µg/mL,50 µg/mL,25 µg/mL,25 µg/mL,12.5 µg/mL,CC(=O)NC1=NN(C(C)=O)C2(CC(c3ccc(Cl)cc3)N(C(C)=O)C(c3ccc(Cl)cc3)C2C)S1 (stereo not given),–,–,–,–,–,–,–
25 µg/mL,25 µg/mL,50 µg/mL,50 µg/mL,25 µg/mL,50 µg/mL,50 µg/mL,25 µg/mL,50 µg/mL,25 µg/mL,CC(=O)NC1=NN(C(C)=O)C2(CC(c3ccc(Cl)cc3)N(C(C)=O)C(c3ccc(Cl)cc3)C2)S1 (stereo not given),–,–,–,–,–,–,–
12.5 µg/mL,25 µg/mL,25 µg/mL,25 µg/mL,50 µg/mL,50 µg/mL,25 µg/mL,25 µg/mL,25 µg/mL,12.5 µg/mL,COc1ccc(C2CC3(CC(c4ccc(OC)cc4)N2C(C)=O)SC(NC(C)=O)=NN3C(C)=O)cc1 (stereo not given),–,–,–,–,–,–,–

Structure (SMILES),MIC [1],MIC [2],MIC [3],MIC [4],MIC [5],MIC [6],MIC [7],MIC [8],MIC [10],MIC [17],inhibition [9],inhibition [11],inhibition [12],inhibition [13],inhibition [14],inhibition [15],inhibition [16]
C[C@@H]1[C@H](O)[C@@H](C)/C=C/C=C/C=C/C=C/C=C/C=C/C=C/[C@H](O[C@@H]2O[C@H](C)[C@@H](O)[C@H](N)[C@@H]2O)C[C@@H]2O[C@](O)(C[C@@H](O)C[C@@H](O)[C@H](O)CC[C@@H](O)C[C@@H](O)CC(=O)O[C@H]1C)C[C@H](O)[C@H]2C(=O)O [AMPHOTERICIN B],–,–,–,25 µg/mL,–,25 µg/mL,50 µg/mL,50 µg/mL,–,25 µg/mL,–,–,–,–,–,–,–
CN[C@@H]1[C@H](O[C@H]2[C@H](O[C@H]3[C@H](O)[C@@H](O)[C@H](N=C(N)N)[C@@H](O)[C@@H]3N=C(N)N)O[C@@H](C)[C@]2(O)C=O)O[C@@H](CO)[C@H](O)[C@H]1O [STREPTOMYCIN],25 µg/mL,50 µg/mL,12.5 µg/mL,–,25 µg/mL,–,–,–,12.5 µg/mL,–,–,–,–,–,–,–,–
CC1(C)S[C@@H]2[C@H](NC(=O)Cc3ccccc3)C(=O)N2[C@H]1C(=O)O [PENICILLIN G],12.5 µg/mL,12.5 µg/mL,25 µg/mL,–,50 µg/mL,–,–,–,50 µg/mL,–,–,–,–,–,–,–,–
